Test systems include ACHN renal; DU-145 prostate; M14 melanoma; MDA-MB-231 breast; MOLT-4 leukemia; OVCAR-8 ovarian; SF-539 CNS; SN12C renal; SNB-75 CNS; SW-620 colon.
What all share (experiment): inhibition of tumour cell growth, NCI panel, 48 h

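1) Cells in 96-well plates. 2) Compound, 48 h, 5 concentrations. 3) Linear interpolation between surrounding doses. 4) Unreached endpoint = highest concentration. GI50 is the concentration that inhibits growth by half. TGI: total growth inhibition.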

The results in this text go back to PubChem BioAssay (NCI).

As to `O=C(c1ccco1)c1c(C(F)(F)F)n([O-])c2ccc(Cl)cc2[n+]1=O`, the GI50 in the assay with ACHN renal is 0.137 µM; with DU-145 prostate, 0.341 µM; with M14 melanoma, 0.374 µM; in the assay with MDA-MB-231 breast, 0.376 µM; with MOLT-4 leukemia, 0.0335 µM; with OVCAR-8 ovarian, 0.799 µM. The GI50 in the assay on SF-539 CNS is 0.37 µM; with SN12C renal, 1.35 µM; in the assay on SNB-75 CNS, 1.9 µM; with SW-620 colon it was 0.22 µM. Besides, the TGI in the assay on ACHN renal was 0.482 µM; in the assay on DU-145 prostate, 1.44 µM; in the assay on M14 melanoma, 1.67 µM; in the assay on MDA-MB-231 breast, 1.41 µM; in the assay with MOLT-4 leukemia, 0.539 µM; in the assay on OVCAR-8 ovarian, 2.1 µM. For the same compound, the TGI in the assay on SF-539 CNS is 0.924 µM; with SN12C renal it was 3.13 µM; in the assay on SNB-75 CNS, 5.18 µM; in the assay with SW-620 colon it was 1.18 µM.

Consider `O=c1oc2ccc(Br)cc2c(=O)n1-c1ccc(I)cc1F`, for which the GI50 is 0.401 µM in the assay with ACHN renal; 0.494 µM in the assay on DU-145 prostate; 0.416 µM with M14 melanoma; 0.327 µM in the assay with MDA-MB-231 breast; 0.579 µM in the assay on MOLT-4 leukemia; 0.362 µM in the assay on OVCAR-8 ovarian. In addition, the GI50 in the assay with SF-539 CNS was 0.403 µM; in the assay on SN12C renal, 0.33 µM; in the assay on SNB-75 CNS it was 0.219 µM; in the assay on SW-620 colon it was 0.479 µM. Also, the TGI with ACHN renal was 6.04 µM; in the assay with DU-145 prostate, 26.9 µM; in the assay on M14 melanoma, 4.39 µM; in the assay with MDA-MB-231 breast, 2.54 µM; in the assay with MOLT-4 leukemia it was 3.22 µM; in the assay with OVCAR-8 ovarian it was 5.98 µM. For the same compound, the TGI came out at 4.04 µM with SF-539 CNS, 2.79 µM with SN12C renal, 1.36 µM in the assay with SNB-75 CNS and 10.5 µM in the assay on SW-620 colon.

On to `NCOC(=O)Cc1ccc(Br)cc1`, for which the TGI in the assay with ACHN renal, in the assay with DU-145 prostate, in the assay with M14 melanoma, in the assay with MDA-MB-231 breast, in the assay with MOLT-4 leukemia and with OVCAR-8 ovarian was greater than 100 µM in each case. Besides, the TGI in the assay with SF-539 CNS, in the assay on SN12C renal, in the assay with SNB-75 CNS and in the assay with SW-620 colon was greater than 100 µM throughout.

In the case of `CC(=O)OC1CC2C3CCC4C[C@@H](NC(=O)C=C(C)C)CC[C@]4(C)C3CC[C@]2(C)[C@H]1C(C)N(C)C` (stereo not given in full), the GI50 in the assay with ACHN renal was 2.73 µM; in the assay on DU-145 prostate, 3.41 µM; in the assay with M14 melanoma, 1.6 µM; with MDA-MB-231 breast it was 2.1 µM; with MOLT-4 leukemia, 1.32 µM; in the assay on OVCAR-8 ovarian it was 4.87 µM. In addition, the GI50 in the assay on SF-539 CNS is 1.27 µM; in the assay on SN12C renal it was 2.4 µM; in the assay with SNB-75 CNS, 2 µM; in the assay with SW-620 colon it was 1.65 µM. Also, the TGI in the assay on ACHN renal is 7.36 µM; in the assay with DU-145 prostate, 14.1 µM; with M14 melanoma it was 3.39 µM; with MDA-MB-231 breast, 4.72 µM; with MOLT-4 leukemia it was 4.18 µM; in the assay on OVCAR-8 ovarian, greater than 31.5 µM. Moreover, the TGI in the assay with SF-539 CNS stood at 2.62 µM; in the assay with SN12C renal, 8 µM; with SNB-75 CNS it was 6.51 µM; in the assay with SW-620 colon, 3.47 µM.

Regarding `CCCCCCCCn1ccc2cc(NC(=O)Cn3cc(CN4CCCCC4)nn3)ccc21`, the GI50 in the assay with ACHN renal is 1.72 µM; with DU-145 prostate, 4.1 µM; with M14 melanoma, 1.78 µM; in the assay with MDA-MB-231 breast, 1.8 µM; in the assay on MOLT-4 leukemia, 2.59 µM; with OVCAR-8 ovarian, 2.98 µM. Further, the GI50 in the assay on SF-539 CNS was 1.81 µM; in the assay on SN12C renal it was 1.8 µM; in the assay on SNB-75 CNS, 1.51 µM; with SW-620 colon, 1.84 µM. The TGI in the assay on ACHN renal came out at 3.19 µM; with DU-145 prostate, 14.4 µM; with M14 melanoma it was 3.43 µM; in the assay on MDA-MB-231 breast, 3.52 µM; in the assay with MOLT-4 leukemia it was 7.23 µM; in the assay on OVCAR-8 ovarian, 9.3 µM. In addition, the TGI in the assay with SF-539 CNS amounted to 3.26 µM; in the assay on SN12C renal, 3.75 µM; in the assay with SNB-75 CNS, 2.96 µM; in the assay on SW-620 colon it was 3.59 µM.

In the case of `CN(C)c1ccc(/C=C/C2=[N+](C)c3ccccc3C2(C)C)cc1`, the GI50 was 1.38 µM in the assay with ACHN renal; 0.453 µM in the assay on DU-145 prostate; 0.75 µM in the assay on M14 melanoma; 1.51 µM with MDA-MB-231 breast; 0.305 µM in the assay with MOLT-4 leukemia; 0.349 µM with OVCAR-8 ovarian. For the same compound, the GI50 in the assay on SF-539 CNS was 1.65 µM; with SN12C renal it was 0.354 µM; with SNB-75 CNS, 2.47 µM; in the assay with SW-620 colon, 0.379 µM. Also, the TGI in the assay with ACHN renal was 12.8 µM; with DU-145 prostate, 23.9 µM; with M14 melanoma it was 14.4 µM; with MDA-MB-231 breast, 20.9 µM; in the assay on MOLT-4 leukemia, 2.24 µM; with OVCAR-8 ovarian, 12.1 µM. For the same compound, the TGI worked out at 14 µM with SF-539 CNS, 13.4 µM with SN12C renal, 20.6 µM in the assay with SNB-75 CNS and 17.8 µM in the assay with SW-620 colon.

As for `COc1cc(C(=O)N/N=C/c2ccc(N(C)C)cc2)cc(OC)c1OC`, the GI50 was 1.28 µM in the assay with ACHN renal; 0.415 µM in the assay with DU-145 prostate; 0.335 µM in the assay on M14 melanoma; 1.89 µM in the assay on MDA-MB-231 breast; 0.729 µM in the assay with MOLT-4 leukemia; 0.599 µM with OVCAR-8 ovarian. The GI50 was 0.3 µM with SF-539 CNS, 1.1 µM with SN12C renal, 0.152 µM with SNB-75 CNS and 0.424 µM in the assay with SW-620 colon. Also, the TGI with ACHN renal was greater than 100 µM; with DU-145 prostate, 2.79 µM; in the assay on M14 melanoma, greater than 100 µM; in the assay with MDA-MB-231 breast it was greater than 87.9 µM; with MOLT-4 leukemia it was 19.4 µM; with OVCAR-8 ovarian, greater than 100 µM. Moreover, the TGI in the assay on SF-539 CNS is 5.25 µM; in the assay on SN12C renal, greater than 100 µM; with SNB-75 CNS it was greater than 100 µM; in the assay with SW-620 colon, greater than 100 µM.

Consider `NCC1OC(OC2C(CO)OC(OC3C(O)C(N)CC(N)C3OC3OC(CO)C(O)CC3N)C2O)C(N)C(O)C1OC1OC(CO)C(O)C(O)C1O` (stereo not given), for which the GI50 in the assay with ACHN renal, in the assay with DU-145 prostate, in the assay with M14 melanoma, in the assay with MDA-MB-231 breast, in the assay on MOLT-4 leukemia and in the assay on OVCAR-8 ovarian was greater than 50 mg/L each time. Also, the GI50 in the assay on SF-539 CNS, in the assay on SN12C renal, in the assay on SNB-75 CNS and with SW-620 colon was greater than 50 mg/L throughout. The TGI in the assay on ACHN renal, in the assay on DU-145 prostate, in the assay with M14 melanoma, in the assay on MDA-MB-231 breast, in the assay with MOLT-4 leukemia and in the assay on OVCAR-8 ovarian was greater than 50 mg/L throughout. The TGI with SF-539 CNS, in the assay on SN12C renal, in the assay with SNB-75 CNS and in the assay with SW-620 colon was greater than 50 mg/L in each case.
